# Laboratory results reported in US6066628A, “Non-iron metalloporphyrins and methods of use” (Emory University, priority 1998, dated 2000).
# Like-named read-outs stand apart in the source and are kept apart here.
# Columns and labels:
# E. faecalis = assay: Disc diffusion sensitivity test; assay type: cell-based, Enterococcus faecalis; conditions: disc ~50 μg MP; also: key: -: resistant; N: not determined
# S. crevisieae = assay: Disc diffusion sensitivity test; assay type: cell-based, Saccharomyces cerevisiae; conditions: S. cerevisiae; disc ~50 μg MP
# M. smegmatis [1] = assay type: cell-based, Mycobacterium smegmatis; conditions: for Minimal inhibitory concentration (MIC): M. smegmatis LR222, LB + Tween 80 (Table 2)
# Ps. aeruginosa = assay: Disc diffusion sensitivity test; assay type: cell-based, Pseudomonas aeruginosa; conditions: disc ~50 μg MP; also: key: -: resistant; N: not determined
# Y. enterocolitica [2] = assay: Disc diffusion sensitivity test; assay type: cell-based; conditions: disc ~50 μg MP
# S. pyogenes A = assay: Disc diffusion sensitivity test; assay type: cell-based, Streptococcus pyogenes; conditions: disc ~50 μg MP
# S. aureus [3] = assay type: cell-based, Staphylococcus aureus; conditions: methicillin-resistant S. aureus IR219; Nutrient broth (Table 2)
# M. bovis = assay type: cell-based, Mycobacterium bovis; conditions: disc ~50 μg MP
# B. subtilis = assay: Disc diffusion sensitivity test; assay type: cell-based, Bacillus subtilis; conditions: B. subtilis; disc ~50 μg MP
# N. meningitidis = assay: Disc diffusion sensitivity test; assay type: cell-based; conditions: disc ~50 μg MP
# M. smegmatis [4] = assay: Disc diffusion sensitivity test; assay type: cell-based, Mycobacterium smegmatis; conditions: disc ~50 μg MP
# S. aureus [5] = assay: Disc diffusion sensitivity test; assay type: cell-based, Staphylococcus aureus; conditions: S. aureus; disc ~50 μg MP
# Y. enterocolitica [6] = assay: microbe, parasite or virus in culture; assay type: cell-based
# S. marcescens = assay: Disc diffusion sensitivity test; assay type: cell-based, Serratia marcescens; conditions: S. marcescens; disc ~50 μg MP
# P. mirabills = assay: Disc diffusion sensitivity test; assay type: cell-based, Proteus mirabilis; conditions: P. mirabilis; disc ~50 μg MP
# bacteria = assay type: cell-based
# E. coli = assay: Disc diffusion sensitivity test; assay type: cell-based, Escherichia coli; conditions: E. coli; disc ~50 μg MP
# K. oxytoca = assay: Disc diffusion sensitivity test; assay type: cell-based, Klebsiella oxytoca; conditions: K. oxytoca; disc ~50 μg MP
# E. aerogenes = assay: Disc diffusion sensitivity test; assay type: cell-based, Enterobacter aerogenes; conditions: E. aerogenes; disc ~50 μg MP
# K. pneumoniae = assay: Disc diffusion sensitivity test; assay type: cell-based, Klebsiella pneumoniae; conditions: K. pneumoniae; disc ~50 μg MP
# M tuber. H37Rv = assay: Disc diffusion sensitivity test; assay type: cell-based, Mycobacterium tuberculosis; conditions: disc ~50 μg MP
# F. menigosepticum = assay: Disc diffusion sensitivity test; assay type: cell-based, Flavobacterium meningosepticum; conditions: F. meningosepticum; disc ~50 μg MP
# M tuber. H37Pa = assay: Disc diffusion sensitivity test; assay type: cell-based, Mycobacterium tuberculosis; conditions: disc ~50 μg MP
# C. freundii = assay: Disc diffusion sensitivity test; assay type: cell-based, Citrobacter freundii; conditions: C. freundii; disc ~50 μg MP
# yeasts = assay: Yeast growth inhibition; assay type: cell-based
# M. avium = conditions: M. avium
# M. tuberculosis = assay type: cell-based, Mycobacterium tuberculosis; conditions: pathogenic M. tuberculosis
# [7] = system: Streptococcus pyogenes JRS4; assay type: cell-based; conditions: S. pyogenes JRS4 (Table 4)
# Y. enterocolitica [8] = assay: Minimal bactericidal concentration; assay type: cell-based; conditions: reduces plating efficiency more than 99.9%; minimal exposure to light
# M. smegmatis [9] = assay: Minimal bactericidal concentration; assay type: cell-based, Mycobacterium smegmatis; conditions: reduces plating efficiency more than 99.9%; minimal exposure to light
# S. aureus [10] = assay: Minimal bactericidal concentration; assay type: cell-based, Staphylococcus aureus; conditions: reduces plating efficiency more than 99.9%; minimal exposure to light
# Description: Minimal bactericidal concentrations (MBCs) were determined essentially the same way as MICs except that the amount of killing with a particular concentration of porphyrin derivative was determined by plating on solid microbiological media (LB plates or LB+Tween 80). Media were solidified by the incorporation of 1.5% agar (Difco Laboratories). Concentrations of porphyrins that produced 99.9% reduction in bacterial counts were considered bactericidal [Hindler et al. (1994) supra].
# MBC were determined by plating bacterial cultures that have been incubate
# in the presence of MPs at concentrations higher than MIC. MBC was defined
# as a concentration of a particular MP which reduces the plating efficienc
# more than 99.9%. Experiments were done with minimal exposure to light
# (addition of porphyrins waa done in the presence of artifical light).
Compound,diameter (mm) of the inhibition zone (E. faecalis),diameter (mm) of the inhibition zone (S. crevisieae),Minimal inhibitory concentration (MIC) (M. smegmatis [1]) [mg/L],diameter (mm) of the inhibition zone (Ps. aeruginosa),diameter (mm) of the inhibition zone (Y. enterocolitica [2]),diameter (mm) of the inhibition zone (S. pyogenes A),Minimal inhibitory concentration (MIC) (S. aureus [3]) [mg/L],diameter (mm) of the inhibition zone (M. bovis),diameter (mm) of the inhibition zone (B. subtilis),diameter (mm) of the inhibition zone (N. meningitidis),diameter (mm) of the inhibition zone (M. smegmatis [4]),diameter (mm) of the inhibition zone (S. aureus [5]),Minimal inhibitory concentration (MIC) (Y. enterocolitica [6]),diameter (mm) of the inhibition zone (S. marcescens),also measured
"C=Cc1c2[n-]c(c1C)/C=c1\[n-]/c(c(C)c1C=C)=C\c1[n-]c(c(CCC(=O)O)c1C)C=c1[n-]/c(c(C)c1CCC(=O)O)=C\2.[Sn+4] [Sn-PPIX, tin-protoporphyrin IX]",-,-,20,-,-,-,> 40,-,-,-,-,-,20,-,
"O=S(=O)([O-])c1ccc(-c2c3nc(c(-c4ccc(S(=O)(=O)[O-])cc4)c4ccc([n-]4)c(-c4ccc(S(=O)(=O)[O-])cc4)c4nc(c(-c5ccc(S(=O)(=O)[O-])cc5)c5ccc2[n-]5)C=C4)C=C3)cc1.[Cl-].[Mn+3] [Mn-meso, Mnmeso-tetra(4-sulfonatophenyl)-porphine chloride]",,,,-,-,,,,-,-,,-,,-,diameter (mm) of the inhibition zone (P. mirabills): -; antibacterial activity (bacteria; listed as Manganese (+2)-meso-tetra-4-sulfonatophenyl porphine): inactive; diameter (mm) of the inhibition zone (E. coli): -; diameter (mm) of the inhibition zone (K. oxytoca): -; diameter (mm) of the inhibition zone (E. aerogenes): -; diameter (mm) of the inhibition zone (K. pneumoniae): -; diameter (mm) of the inhibition zone (M tuber. H37Rv): -; diameter (mm) of the inhibition zone (F. menigosepticum): -; diameter (mm) of the inhibition zone (M tuber. H37Pa): -; diameter (mm) of the inhibition zone (C. freundii): -
C=Cc1c(C)c2cc3[nH]c(cc4nc(cc5nc(cc1[nH]2)C(C)=C5CCC(=O)[O-])C(CCC(=O)[O-])=C4C)c(C)c3C=C.[Co+2] [Co-PPIX],-,18 mm,20,-,-,-,40,-,-,-,-,15 mm,20,-,
C=CC1=C(C)c2cc3[n-]c(cc4nc(cc5[n-]c(cc1n2)c(C)c5CCC(=O)O)C(CCC(=O)O)=C4C)c(C)c3C=C.[Cr+2] [Cr-PPIX],-,-,20,-,-,-,> 40,-,-,-,-,10 mm,20,-,
"CC1=C(CCC(=O)O)C2=Cc3c(C)c(CCC(=O)O)c4[n]3[Ga]([Cl])[n]3c(c(C)c(CCC(=O)O)c3=CC1=N2)=CC1=NC(=C4)C(C)=C1CCC(=O)O [Ga-COPI, Ga-coproporphyrin I]",,,,,,,,,,,,,,,antibacterial activity (bacteria): seriously limited in their antibacterial activities; inhibition of growth of yeast (yeasts): able to inhibit growth of yeast
Indium (III) protoporphyrin IX chloride [In-PPIX],-,,0.4,-,12 mm,13 mm,1.6,,,,,15 mm,0.2,,sensitivity (preliminary experiments) (M. avium): sensitive; diameter (mm) of the inhibition zone (P. mirabills): 9 mm; diameter (mm) of the inhibition zone (E. coli): -; antibacterial activity (M. smegmatis [1]; M. smegmatis): inhibitory; diameter (mm) of the inhibition zone (K. oxytoca): 9 mm; diameter (mm) of the inhibition zone (E. aerogenes): 9 mm; diameter (mm) of the inhibition zone (K. pneumoniae): 9 mm; diameter (mm) of the inhibition zone (M tuber. H37Rv): -; sensitivity (preliminary experiments) (M. tuberculosis): sensitive; MIC [7]: 0.1 mg/L; Minimal bactericidal concentration (MBC) (Y. enterocolitica [8]): > 13; Minimal bactericidal concentration (MBC) (M. smegmatis [9]): 10; antibacterial activity (Y. enterocolitica [6]): inhibitory; diameter (mm) of the inhibition zone (F. menigosepticum): -; diameter (mm) of the inhibition zone (M tuber. H37Pa): 17 mm; Minimal bactericidal concentration (MBC) (S. aureus [10]): > 13; diameter (mm) of the inhibition zone (C. freundii): 9 mm
"O=C(O)CCC1=C(CC(=O)O)C2=Cc3c(CC(=O)O)c(CCC(=O)O)c4[n]3[Ga]([Cl])[n]3c(c(CCC(=O)O)c(CC(=O)O)c3=CC3=NC(=C4)C(CC(=O)O)=C3CCC(=O)O)=CC1=N2 [Ga-UPIII, Ga-uroporphyrin III]",,,,,,,,,,,,,,,antibacterial activity (bacteria): seriously limited in their antibacterial activities; inhibition of growth of yeast (yeasts): able to inhibit growth of yeast
